Assay results reported in the NIST ThermoML archive (doi:10.1016/j.jct.2018.11.005).

Details: Liquid; for mass density: Vibrating tube method; for speed of sound: Frequency=5 MHz, Single path-length method

CCC(=O)[O-].CC[NH2+]CCO [N-ethyl-2-hydroxyethylammonium propionate]
Details | mass density [kg/m3] | speed of sound [m/s]
298.14 K, 15000 kPa | 1058.3 | –
298.14 K, 30000 kPa | 1063.5 | –
298.15 K, 10000 kPa | 1057 | –
298.15 K, 25000 kPa | 1061.8 | –
298.15 K, 35000 kPa | 1064.6 | –
298.16 K, 100 kPa | 1051.9 | –
298.16 K, 20000 kPa | 1059.9 | –
303.08 K, 35000 kPa | 1060.7 | –
303.12 K, 30000 kPa | 1059.2 | –
303.14 K, 20000 kPa | 1055.6 | –
303.14 K, 25000 kPa | 1057.4 | –
303.15 K, 100 kPa | – | 1566.6
303.15 K, 1000 kPa | – | 1570.6
303.15 K, 2000 kPa | – | 1574.6
303.15 K, 3000 kPa | – | 1578.7
303.15 K, 4000 kPa | – | 1582.8
303.15 K, 5000 kPa | – | 1586.9
303.15 K, 6000 kPa | – | 1589.6
303.15 K, 7000 kPa | – | 1592.4
303.15 K, 8000 kPa | – | 1595.1
303.15 K, 9000 kPa | – | 1599.3
303.15 K, 10000 kPa | 1052.1 | 1603.5
303.15 K, 11000 kPa | – | 1607.7
303.15 K, 12000 kPa | – | 1611.9
303.15 K, 13000 kPa | – | 1616.1
303.15 K, 14000 kPa | – | 1620.3
303.15 K, 15000 kPa | 1053.4 | 1623.2
303.15 K, 16000 kPa | – | 1627.4
303.15 K, 17000 kPa | – | 1631.7
303.15 K, 18000 kPa | – | 1634.6
303.15 K, 19000 kPa | – | 1637.5
303.15 K, 20000 kPa | – | 1640.4
303.16 K, 100 kPa | 1046.7 | –
313.07 K, 25000 kPa | 1047.8 | –
313.07 K, 30000 kPa | 1049.6 | –
313.07 K, 35000 kPa | 1051.4 | –
313.09 K, 10000 kPa | 1041.8 | –
313.09 K, 20000 kPa | 1045.6 | –
313.11 K, 15000 kPa | 1043.2 | –
313.14 K, 100 kPa | 1035.6 | –
313.15 K, 100 kPa | – | 1535.6
313.15 K, 1000 kPa | – | 1539.4
313.15 K, 2000 kPa | – | 1543.3
313.15 K, 3000 kPa | – | 1547.2
313.15 K, 4000 kPa | – | 1552.4
313.15 K, 5000 kPa | – | 1555
313.15 K, 6000 kPa | – | 1560.3
313.15 K, 7000 kPa | – | 1564.2
313.15 K, 8000 kPa | – | 1568.2
313.15 K, 9000 kPa | – | 1572.2
313.15 K, 10000 kPa | – | 1576.2
313.15 K, 11000 kPa | – | 1578.9
313.15 K, 12000 kPa | – | 1583
313.15 K, 13000 kPa | – | 1587.1
313.15 K, 14000 kPa | – | 1591.1
313.15 K, 15000 kPa | – | 1595.3
313.15 K, 16000 kPa | – | 1599.4
313.15 K, 17000 kPa | – | 1603.5
313.15 K, 18000 kPa | – | 1607.7
313.15 K, 19000 kPa | – | 1610.5
313.15 K, 20000 kPa | – | 1614.7
323.15 K, 100 kPa | 1024.4 | 1504.9
323.15 K, 1000 kPa | – | 1508.6
323.15 K, 2000 kPa | – | 1512.4
323.15 K, 3000 kPa | – | 1517.3
323.15 K, 4000 kPa | – | 1522.4
323.15 K, 5000 kPa | – | 1527.4
323.15 K, 6000 kPa | – | 1531.2
323.15 K, 7000 kPa | – | 1535
323.15 K, 8000 kPa | – | 1538.9
323.15 K, 9000 kPa | – | 1542.8
323.15 K, 10000 kPa | – | 1546.6
323.15 K, 11000 kPa | – | 1550.5
323.15 K, 12000 kPa | – | 1555.7
323.15 K, 13000 kPa | – | 1559.7
323.15 K, 14000 kPa | – | 1563.6
323.15 K, 15000 kPa | 1032.6 | 1566.3
323.15 K, 16000 kPa | – | 1570.3
323.15 K, 17000 kPa | – | 1572.9
323.15 K, 18000 kPa | – | 1575.6
323.15 K, 19000 kPa | – | 1579.6
323.15 K, 20000 kPa | 1035.2 | 1583.7
323.15 K, 25000 kPa | 1037.2 | –
323.15 K, 30000 kPa | 1039.3 | –
323.15 K, 35000 kPa | 1041.5 | –
323.16 K, 10000 kPa | 1030.5 | –
333.14 K, 10000 kPa | 1018 | –
333.15 K, 100 kPa | – | 1485.5
333.15 K, 1000 kPa | – | 1489.2
333.15 K, 2000 kPa | – | 1494.2
333.15 K, 3000 kPa | – | 1497.9
333.15 K, 4000 kPa | – | 1500.5
333.15 K, 5000 kPa | – | 1503
333.15 K, 6000 kPa | – | 1508
333.15 K, 7000 kPa | – | 1511.8
333.15 K, 8000 kPa | – | 1514.4
333.15 K, 9000 kPa | – | 1519.4
333.15 K, 10000 kPa | – | 1523.2
333.15 K, 11000 kPa | – | 1525.8
333.15 K, 12000 kPa | – | 1530.9
333.15 K, 13000 kPa | – | 1533.5
333.15 K, 14000 kPa | – | 1536.1
333.15 K, 15000 kPa | 1021 | 1540
333.15 K, 16000 kPa | – | 1542.6
333.15 K, 17000 kPa | – | 1546.5
333.15 K, 18000 kPa | – | 1550.4
333.15 K, 19000 kPa | – | 1553
333.15 K, 20000 kPa | – | 1555.6
333.15 K, 30000 kPa | 1028.8 | –
333.15 K, 35000 kPa | 1031.3 | –
333.16 K, 100 kPa | 1011.9 | –
333.16 K, 20000 kPa | 1023.7 | –
333.16 K, 25000 kPa | 1026.2 | –
343.14 K, 15000 kPa | 1008.7 | –
343.14 K, 25000 kPa | 1014.3 | –
343.15 K, 100 kPa | – | 1450.5
343.15 K, 1000 kPa | – | 1454.2
343.15 K, 2000 kPa | – | 1458
343.15 K, 3000 kPa | – | 1461.8
343.15 K, 4000 kPa | – | 1466.7
343.15 K, 5000 kPa | – | 1470.5
343.15 K, 6000 kPa | – | 1474.3
343.15 K, 7000 kPa | – | 1478.1
343.15 K, 8000 kPa | – | 1481.9
343.15 K, 9000 kPa | – | 1485.7
343.15 K, 10000 kPa | – | 1489.5
343.15 K, 11000 kPa | – | 1493.3
343.15 K, 12000 kPa | – | 1497.2
343.15 K, 13000 kPa | – | 1501
343.15 K, 14000 kPa | – | 1504.8
343.15 K, 15000 kPa | – | 1507.4
343.15 K, 16000 kPa | – | 1511.2
343.15 K, 17000 kPa | – | 1516.3
343.15 K, 18000 kPa | – | 1520.1
343.15 K, 19000 kPa | – | 1524
343.15 K, 20000 kPa | – | 1526.6
343.17 K, 100 kPa | 998.8 | –
343.17 K, 10000 kPa | 1004.6 | –
343.17 K, 30000 kPa | 1017.4 | –
343.19 K, 35000 kPa | 1020.1 | –
343.21 K, 20000 kPa | 1011.2 | –
353.15 K, 100 kPa | – | 1416
353.15 K, 1000 kPa | – | 1419.9
353.15 K, 2000 kPa | – | 1423.8
353.15 K, 3000 kPa | – | 1428.9
353.15 K, 4000 kPa | – | 1434
353.15 K, 5000 kPa | – | 1438
353.15 K, 6000 kPa | – | 1443.1
353.15 K, 7000 kPa | – | 1447
353.15 K, 8000 kPa | – | 1451
353.15 K, 9000 kPa | – | 1456.1
353.15 K, 10000 kPa | – | 1460
353.15 K, 11000 kPa | – | 1465.1
353.15 K, 12000 kPa | – | 1469
353.15 K, 13000 kPa | – | 1471.8
353.15 K, 14000 kPa | – | 1476.9
353.15 K, 15000 kPa | – | 1480.8
353.15 K, 16000 kPa | – | 1484.7
353.15 K, 17000 kPa | – | 1488.6
353.15 K, 18000 kPa | – | 1492.5
353.15 K, 19000 kPa | – | 1496.4
353.15 K, 20000 kPa | – | 1500.2
